Reference: publication PMC7821381, “Multi-Targeted Anticancer Activity of Imidazolate Phosphane Gold(I) Compounds by Inhibition of DHFR and TrxR in Breast Cancer Cells” (Frontiers in Chemistry, 2021)
Read-outs that look alike come from different tables or passages of the source.

Assays:
DNA = tested on: DNA; set-up: method as in Nafisi et al., 2007; details: ref Nafisi et al., 2007; cited from earlier work
SKBR3 cells [1] = experiment: MTT cell viability assay on SKBR3 cells; format: cell-based, human
Text: (§1) Human MDA-MB-231 (ER–/PR–/HER2–) and SK-BR-3 (ER–/PR–/HER2+) cells were obtained from American Type Culture Collection (Rockville, MD) and cultured in Dulbecco's Modified Essential Medium (DMEM, Gibco, Life Technologies) supplemented with 10% fetal bovine serum (FBS, Gibco, Life Technologies) and 1% penicillin–streptomycin (Gibco, Life Technologies). A17 cells were established from a spontaneous lobular carcinoma that arose in an FVB/neuT mouse (Galiè et al., [2005]), and maintained in DMEM plus 20% FBS and 1% penicillin-streptomycin. Cells were cultured at 37°C under humidified atmosphere with 5% CO2.
(§2) Stock solutions were prepared for each gold(I) compound (50 mM) using dimethyl sulfoxide (DMSO) (Sigma-Aldrich) as solvent. The effects of gold(I) compounds on SKBR3, A17 and MDA-MB231 cells viability were evaluated by seeding, respectively, 10, ^*10^3, 2.5 ^*10^3, 7, ^*10^3 cells/well in 96 wells plates in complete medium (DMEM supplemented with FBS) and compared to those of cisplatin. The day after, fresh medium containing vehicle alone (DMSO, 1 % v/v final concentration) or increasing concentrations of each compound ranging from 0.1 to 100 μM was added. Cell viability was determined using a MTT [3-(4,5-dimethylthiazol-2-yl)-2,5-diphenyl-2H-tetrazolium bromide Sigma Aldrich, St. Louis, MO] assay, which is based on the conversion of MTT to formazan crystals by mitochondrial enzymes, after 24, 48, and 72 h. The formazan deposits were dissolved in DMSO and the absorbance of each well was measured at 540 nm in Multiskan Ascent 96/384 Plate Reader. Each drug concentration was evaluated with 8 replicates and each experiment was repeated three times. At the end of the experiments a dose–response curve was plotted, and the IC50 concentrations were determined. Statistical analysis was performed using One-Way ANOVA analysis of variance followed by Dunnett's Multiple Comparison Test. Quantitative data are presented as means ± SEM. Differences were considered significant at ^*P ≤ 0.0332; ^**P ≤ 0.0021; ^***P ≤ 0.0002; ^****P ≤ 0.0001.
(§3) IC50 values were calculated for each of the cell lines tested, by fitting the concentration-effect curves data obtained in the three experiments with the sigmoid-Emax model using nonlinear regression, weighted by the reciprocal of the square of the predicted effect.

[2] = Stability in physiological condition; format: physicochemical
MDA-MB231 cells [3] = experiment: MTT cell viability assay on MDA-MB231 cells; format: cell-based, human; details: MDA-MB231, 24 h, ± S. D.
Text: as §1
as §2, with “Statistical analysis was performed using One-Way ANOVA analysis of variance followed by Dunnett's Multiple Comparison Test.” left out, “Differences were considered significant at ^*P ≤ 0.0332; ^**P ≤ 0.0021; ^***P ≤ 0.0002; ^****P ≤ 0.0001.” left out
as §3

A17 cells [4] = experiment: MTT cell viability assay on A17 cells; format: cell-based, murine; details: A17, 24 h, ± S. D.
Text: as §1
as §2, with “Statistical analysis was performed using One-Way ANOVA analysis of variance followed by Dunnett's Multiple Comparison Test.” left out, “Differences were considered significant at ^*P ≤ 0.0332; ^**P ≤ 0.0021; ^***P ≤ 0.0002; ^****P ≤ 0.0001.” left out
as §3

A17 cells [5] = tested on: A17 cells; set-up: method as in Gambini et al., 2018; details: A17, 24 h; ref Gambini et al., 2018; cited from earlier work
SKBR3 cells [6] = tested on: SKBR3 cells; set-up: method as in Serova et al., 2006; details: SKBR3, 24 h; ref Serova et al., 2006; cited from earlier work
MDA-MB231 cells [7] = tested on: MDA-MB231 cells; set-up: method as in Gambini et al., 2018; details: MDA-MB231, 48 h; ref Gambini et al., 2018; cited from earlier work

Compound: CC[n+]1c(-c2ccccc2)c2cc(N)ccc2c2ccc(N)cc21 [ethidium bromide]
- binding constant of classical intercalators to DNA (DNA): 65800 M⁻¹

Compound: O=C(O)c1ccccc1[PH]([Au][Cl])(c1ccccc1)c1ccccc1 [Compound 1, 2-benzoic-diphenylphosphanegold chloride]
- cytotoxic activity in MTT screening (SKBR3 cells [1]; SKBR3 cells, 72 h (Figure 1S) and 48 h (Figure 2)): did not show relevant cytotoxic activity

Compound: (3,5-dintropyrazolyl-1H-gold(I)-(triphenylphosphane) [Compound 4]
- stability in physiological condition [2]: less stable in physiological condition
- IC50 (MDA-MB231 cells [3]): 12.8 ± 0.7 µM
- IC50 (A17 cells [4]): 11 ± 1 µM
- IC50 (SKBR3 cells [1]; SKBR3, 24 h, ± S. D.): 12.3 ± 1.1 µM

Compound: N.N.[Cl][Pt][Cl] [Cisplatin]
- IC50 (A17 cells [5]): 15.9 ± 1.17 µM
- IC50 (SKBR3 cells [6]): 43 ± 7 µM
- IC50 (MDA-MB231 cells [7]): 50.5 ± 2 µM

Compound: CN(C)c1ccc2cc3ccc(N(C)C)cc3nc2c1 [acridine orange]
- binding constant of classical intercalators to DNA (DNA): 26900 M⁻¹

Compound: CN(C)c1ccc2nc3ccc(=[N+](C)C)cc-3sc2c1 [methylene blue]
- binding constant of classical intercalators to DNA (DNA): 21300 M⁻¹
